Experimental data from the NIST ThermoML archive (doi:10.1016/j.jct.2017.05.006).

Assay: osmotic coefficient (dimensionless); mn = molality of the nth substance listed, in mol/kg
Settings: 298.15 K, Liquid, isopiestic method

O=[N+]([O-])[O-].O=[N+]([O-])[O-].[Mg+2] [magnesium nitrate] + O
Settings	osmotic coefficient
m1 = 0.7578	1.015
m1 = 0.855	1.032
m1 = 0.9755	1.071
m1 = 1.067	1.103
m1 = 1.126	1.115
m1 = 1.15	1.122
m1 = 1.187	1.13
m1 = 1.191	1.135
m1 = 1.234	1.143
m1 = 1.309	1.172
m1 = 1.395	1.196

O=S(=O)([O-])[O-].[Mg+2] [magnesium sulfate] + O
Settings	osmotic coefficient
m1 = 1.562	0.586
m1 = 1.585	0.593
m1 = 1.607	0.595
m1 = 1.643	0.601
m1 = 1.7	0.609
m1 = 1.742	0.617
m1 = 1.803	0.625
m1 = 1.884	0.641
m1 = 2.007	0.665
m1 = 2.132	0.692
m1 = 2.243	0.714
m1 = 2.385	0.746
